According to patent publication US20190308994A1, “Topical Pharmaceutical Formulations For Treating Inflammatory-Related Conditions” (Anacor Pharmaceuticals, Inc., priority 2015, published 2019):
Values after ≈ are worked out from the molar mass of the structure shown. Where two headings read alike, the source gives them in different places.

Tests used:
[1] = Solubility of crisaborole in solvents by visual assessment; type: physicochemical
Protocol: (§1) One of the key aspects encountered in reformulating crisaborole was that the active agent be fully dissolved within its solvent. A selection criterion of greater than 10% w/w crisaborole solubility was used to select solvents capable of carrying at least 1% crisaborole in a final drug product formulation, assuming the drug product contained 10% solvent. The solubility of crisaborole in ten solvents was evaluated to identify those with crisaborole solubility greater than 10% w/w by visual assessment. The equilibrium solubility of the best solvents was subsequently verified by HPLC.

[2] = Equilibrium solubility of crisaborole in solvents by HPLC; type: physicochemical; conditions: thermodynamic from solid, read-out: Solubity by HPLC
Protocol: as §1

Visual Solubity ([1]; in Diisopropyl Adipate): 7.7% w/w | Visual Solubity ([1]; in Ethylhexyl Hydroxystearate): 1.6% w/w | Visual Solubity ([1]; in Hexylene Glycol, NF): 25.9% w/w | Visual Solubity ([1]; in Isopropyl Myristate, NF): 0.6% w/w | Visual Solubity ([1]; in Oleic Acid, NF): <0.1% w/w | Visual Solubity ([1]; in Oleyl Alcohol, NF): 2.3% w/w | Visual Solubity ([1]; in Polyethylene Glycol (PEG) 400, USP): 15.0% w/w | Visual Solubity ([1]; in Propylene Carbonate, NF): 9.9% w/w | Visual Solubity ([1]; in Propylene Glycol, USP): 24.0% w/w | Visual Solubity ([1]; in Transcutol P, NF): 28.6% w/w | solubility ([2]; oil or lipid, in Ethylhexyl Hydroxystearate): 21 mg/mL (≈ 83.6 mM) | solubility ([2]; oil or lipid, in Oleyl Alcohol, NF): 33 mg/mL (≈ 131 mM) | solubility ([2]; organic solvent or mixture, in Hexylene Glycol, NF): 356 mg/mL (≈ 1420 mM) | solubility ([2]; organic solvent or mixture, in Polyethylene Glycol (PEG) 400, USP): 164 mg/mL (≈ 653 mM) | solubility ([2]; organic solvent or mixture, in Propylene Carbonate, NF): 96 mg/mL (≈ 382 mM) | solubility ([2]; organic solvent or mixture, in Propylene Glycol, USP): 274 mg/mL (≈ 1090 mM) | solubility ([2]; organic solvent or mixture, in Transcutol P, NF): 21.2 mg/mL (≈ 84.4 mM)
SMILES: N#Cc1ccc(Oc2ccc3c(c2)COB3O)cc1 [Crisaborole Form II, 5-(4-cyanophenoxy)-1,3-dihydro-1-hydroxy-2,1-benzoxaborole]
